For this test, the system named is Langendorff heart preparation. Kind of test: Coronary flow in the Langendorff heart preparation of Guinea pigs. Particulars: 6 heart preparations. On the procedure:
Coronary flow in the Langendorff heart preparation of Guinea pigs
Guinea pigs of either sex were killed by a blow on the head. The hearts were quickly removed and perfused according to Langendorff (Langendorff, Pflugers Arch. Ges. Physiol. 190, 280 (1895)) with a Ringer solution containing 154 mMol NaCl, 5,6 mMol KCl, 1,9 mMol CaCl2, 2,4 mMol NaHCO3 and 5 mMol glucose which was gassed with oxygen. The temperature of the solution was 37° C. The test substances dissolved in propanediol (0,1%) were added to the inflowing Ringer solution by bolus injection into the inflow tract. The effect, i.e. changes of the coronary outflow, was measured with a drop counter and registered on a Hellige Multiscriptor (Hellige GmbH, Freiburg, Germany) For each compound increase in coronary outflow was measured for three different doses and each dose was tested in 6 different heart preparations.

Molecules are shown by their SMILES.

Regarding `CC1(C)Oc2ccc(S(C)(=O)=O)cc2[C@@H](N2CCCC2=O)[C@@H]1O` (racemic) [(±)-2,2-Dimethyl-3,4-dihydro-6-methylsulfonyl-trans-4-(2-oxo-1-pyrrolidinyl)-2H-benzo[b]pyran-3-ol, reference compound], the “Duration of elevated coronary outflow” value (single dose 2000 ng) is reported as 5 min. Take `CC1(C)Oc2ccc(C#N)cc2[C@@H](N2CCCC2=O)[C@@H]1O` (racemic) [(±)-6-Cyano-3,4-dihydro-2,2-dimethyl-trans-4-(2-oxo-1-pyrrolidinyl)-2H-benzo[b]pyran-3-ol, reference compound]: under “single dose 500 ng”, the “Duration of elevated coronary outflow” value came to 6 min. Same read-out and setting: to `COc1cc2c(cc1S(=O)(=O)c1ccccc1)[C@@H](N1CCCC1=O)[C@H](O)C(C)(C)O2` (relative stereo) [Example 3, 3,4-Dihydro-2,2-dimethyl7-methoxy-6-phenylsulfonyl-trans-4-(2-oxo-1-pyrrolidinyl)-2H -benzo[b]-3-ol] belongs 14 min. Turning to `Cc1ccc(S(=O)(=O)c2ccc3c(c2)[C@@H](N2CCCC2=O)[C@H](O)C(C)(C)O3)cc1` (relative stereo) [Example 4, 3,4-Dihydro-2,2-dimethyl-6-(4-methylphenylsulfonyl)-trans-4-(2-oxo-1-pyrrolidinyl)-2H -benzo[b]pyran-3-ol], for the setting “single dose 500 ng”, the “Duration of elevated coronary outflow” value came out at 11 min. `CC1(C)Oc2ccc(S(=O)(=O)c3ccccc3)cc2[C@@H](N2CCCC2=O)[C@@H]1O` (relative stereo) [Example 5, 3,4-Dihydro-2,2-dimethyl-6-phenylsulfonyl-trans-4-(2-oxo1-pyrrolidinyl)-2H-benzo[b]pyran-3-ol]: the “Duration of elevated coronary outflow” value (single dose 400 ng) came out at 11 min. For the compound `Cc1ccccc1S(=O)(=O)c1ccc2c(c1)[C@@H](N1CCCC1=O)[C@H](O)C(C)(C)O2` (relative stereo) [Example 14, 3,4-Dihydro-2,2-dimethyl-6-(2-methylphenylsulfonyl)-trans4-(2-oxo-1-pyrrolidinyl)-2H-benzo [b]pyran-3-ol], the “Duration of elevated coronary outflow” value (single dose 200 ng) amounted to 13 min. Regarding `CC1(C)Oc2ccc(S(=O)(=O)c3ccccc3)cc2[C@@H](N2CCCC2=O)[C@@H]1O` (single isomer, unassigned) [Example 5a, (+)-3,4-Dihydro-2,2-dimethyl-6-phenylsulfonyl-4-(2-oxo-1-pyrrolidinyl)-2H-benzo[b]pyran-3-ol], for the setting “single dose 100 ng”, the “Duration of elevated coronary outflow” value was 13 min. As to `COc1cc2c(cc1S(=O)(=O)c1ccccc1)[C@@H](N1CCCC1=O)[C@H](O)C(C)(C)O2` [Example 3a, (+)-3,4-dihydro-2,2-dimethyl-7-methoxy-6-phenylsulfonyl-trans-4-(2-oxo-1-pyrrolidinyl)-2H-benzo[b]pyran-3-ol], the “Duration of elevated coronary outflow” value (single dose 500 ng) stood at 11 min.

Source of the values: patent US4999371A, “Substituted 3,4-dihydro-2H-benzopyrans, processes for their preparation, their use and pharmaceutical products based on these compounds” (Hoechst Aktiengesellschaft, priority 1987, dated 1991).
